Measurements taken from patent EP0640341A1, “Sustained release pharmaceutical composition and process for producing same” (priority 1993, dated 1995).

Experiments:
[1] = Solubility in Japanese pharmacopoeia test liquids; type: physicochemical
Source text: For example, the above pyrimidinedione derivative is a basic drug, and has general characteristics that it is easily soluble on an acid side of a pH but very little soluble on a neutral side or an alkaline side. That is to say, in the digestive organs, the pyrimidinedione derivative is easily dissolved and released in the stomach owing to an acid therein, but the dissolution and the release of the pyrimidinedione derivative deteriorate in the intestines because the intestines are a neutral or an alkaline state. Furthermore, the deterioration of the solubility of the pyrimidinedione derivative with the increase of the pH is remarkable.

[2] = Oral administration test of the drug, concentration in blood
Source text: For example, in Example 18 of Japanese Patent Application Laid-open No. 173873/1991, the pyrimidinedione derivative is sufficiently mixed with lactose and starch, and the resultant mixture is then filled into capsules to manufacture the desired drug. The present inventors actually carried out an oral administration test for the drug.

- solubility ([1]; jp test liquid no. 1, Japanese pharmacopoeia test liquid No. 1 (pH = 1.2)): ≥ 1000 mg/mL
- solubility ([1]; jp test liquid no. 2, Japanese pharmacopoeia test liquid No. 2 (pH = 6.8)): ≤ 0.1 mg/mL
- Tmax [2]: ≤ 30 min
Structure (SMILES): Cn1c(NCCN(CCO)CCCc2ccc([N+](=O)[O-])cc2)cc(=O)n(C)c1=O [the pyrimidinedione derivative, 1,3-dimethyl-6-{2-{N-(2-hydroxyethyl)-N-[3-(4-nitrophenyl)propyl]amino}ethylamino}-2,4-(1H,3H)-pyrimidinedione]
